These results are taken from patent publication US5714499A, “3-amino-2-oxo-1-piperidineacetic derivatives containing an arginine mimic as enzyme inhibitors” (Corvas International, Inc., priority 1994, dated 1998).

Data set [1] concerns the target plasmin (Homo sapiens, UniProt P00747). As to the kind of experiment: Plasmin assay (specificity determination). It is filed as biochemical. As to conditions: maximal concentration 25,000 nM, mean of at least two independent experiments. The protocol:
Plasmin catalytic activity was determined using the chromogenic substrate, S-2251 [D-valyl-L-leucyl-L-lysine-p-nitroanilide], which was obtained from Kabi Diagnostica.

Data set [2] deals with rat plasma clotting (APTT). Nature of the data set: Ex vivo anticoagulant effect, APTT in citrated rat plasma. An excerpt:
(§1) The control clotting times (0 inhibitor) for rat and human plasma were 19 seconds and 29 seconds, respectively. The concentration of BzlSO2 -norVal(cyclo)-Gly-Ala(3-guanPip)al which caused a doubling of the control clotting time in rat and human plasma was 12.7 micromolar and 9.1 micromolar, respectively. The data is the mean of two independent determinations.
(§2) Fresh frozen citrated pooled normal human plasma was obtained from George King Biomedical, Overland Park, Kans. Pooled normal rat plasma was prepared from citrated whole blood collected from anesthetized rats using standard procedures. The plasma was flash frozen and stored at -80° C. until use. Measurements APTT was made using the Coag-A-Mate RA4 automated coagulometer (General Diagnostics, Organon Technica, Oklahoma City, Okla.) using the Automated APTT reagent (Organon Technica, Durham, N.C.) as the initiator of clotting according to the manufacturers instructions. The assay was conducted by making a series of dilution's of Isomer B in rapidly thawed plasma followed by adding 200 microliters to the wells of the assay carousel.

The test system of data set [3] is human plasma clotting (APTT). As to the kind of experiment: Ex vivo anticoagulant effect, APTT in citrated human plasma.
From the text: as §1, §2

Data set [4] has as its system FeCl3-induced occlusive thrombus in rat carotid artery. Nature of the data set: Rat model of FeCl3-induced platelet-dependent arterial thrombosis. To be noted: for Incidence of Occlusion: single intravenous bolus 5 minutes before FeCl3, n = 6, 60 minutes, saline 6/6; for ED50: Rattus norvegicus, read-out: ED50 for thrombus prevention in the FeCl3 model of arterial thrombosis. It is filed as in vivo. An excerpt:
Kurz, K. D., Main, B. W., and Sandusky, G. E., Thromb. […] In this model a platelet-rich, occlusive thrombus is formed in a segment of the rat carotid artery treated locally with a fresh solution of FeCl3 absorbed to a piece of filter paper. The FeCl3 is thought to diffuse into the treated segment of artery and causes de-endothelialization of the affected vessel surface. […] The effect of a test compound on the incidence of occlusive thrombus formation following the application of the FeCl3 is monitored by ultrasonic flowtometry and is used as the primary end point. The use of flowtometry to measure carotid artery blood flow, is a modification of the original procedure in which thermal detection of clot formation was employed. Kurz, K. D., Main, B. W., and Sandusky, G. E., Thromb.
The animals were prepared, anesthetized with Nembutal followed by the insertion of catheters for blood pressure monitoring, drug and anesthesia delivery. The left carotid artery was isolated by making a midline cervical incision followed by blunt dissection and spreading techniques to separate a 2 cm segment of the vessel from the carotid sheath. A silk suture is inserted under the proximal and distal ends of the isolated vessel to provide clearance for the placement of a ultrasonic flow probe (Transonic) around the proximal end of the vessel. The probe is then secured with a stationary arm.
Following surgery the animals were randomized in either a control (saline) or treatment group with test compound (Isomer B) with at least 6 animals per group per dose. The test compound was administered as a single intravenous bolus at the doses outlined in Table 3 after placement of the flow probe and 5 minutes prior to the thrombogenic stimulus. […] Blood pressure, blood flow, heart rate, and respiration were monitored for 60 minutes.
The incidence of occlusion (defined as the attainment of zero blood flow) was recorded as the primary end point and as a measure of the antithrombotic efficacy of Isomer B.

The target of data set [5] is T1, human alpha-thrombin (Homo sapiens, UniProt P00734). To be noted: Table 4, human alpha-thrombin.
Method: Enzyme activity was determined using the chromogenic substrate Pefachrome t-PA (CH3 SO2 -D-hexahydrotyrosine-glycyl-L-Arginine-p-nitroanilide), obtained from Pentapharm Ltd. The substrate was reconstituted in deionized water prior to use. Purified human alpha-thrombin (3000U/mg specific activity) was obtained from Enzyme Research Laboratories, Inc. The buffer used for all assays was HBSA (10 mM HEPES, pH 7.5, 150 mM sodium chloride, 0.1%, bovine serum albumin).
Velocities of chromogenic substrate hydrolysis which occurred over 40 min was measured by the change in absorbance at 405 nm using a Thermo Max® Kinetic Microplate Reader. […] The extent of substrate hydrolysis was less than 5% over the course of this assay.
Data set [6] addresses T1, human alpha-thrombin. As to the kind of experiment: biochemical.
Method: The buffer used for all assays was HBSA (10 mM HEPES, pH 7.5, 150 mM sodium chloride, 0.1% bovine serum albumin). […] Following a 30-minute incubation at ambient temperature, 50 microliters of the substrate at the concentrations specified below, was added to the wells yielding a final total volume of 200 microliters. The initial velocity of chromogenic substrate hydrolysis was measured by the change in absorbance at 405nm using a Thermo Max® Kinetic Microplate Reader over a 5 minute period in which less than 5% of the added substrate was utilized.
Thrombin catalytic activity was determined using the chromogenic substrate Pefachrome t-PA (CH3 SO2 -D-hexahydrotyrosine-glycyl-L-arginine-p-nitroanilide, obtained from Pentapharm Ltd.). The substrate was made up in deionized water followed by dilution in HBSA prior to the assay in which the final concentration was 300 micromolar (about 5-times Km). Purified human alpha-thrombin was obtained from Enzyme Research Laboratories, Inc. The enzyme was diluted into HBSA prior to the assay in which the final concentration was 0.25 nM.
Data set [7] relates to thrombin. To be noted: literature; cited from earlier work.
For data set [8] the following is noted: literature; cited from earlier work.
The conditions of data set [9]: literature; cited from earlier work. The source holds these as a separate data set.

Like-named read-outs stand apart in the source and are kept apart here.

Sequence of plasmin (P00747 581-810 limits assumed): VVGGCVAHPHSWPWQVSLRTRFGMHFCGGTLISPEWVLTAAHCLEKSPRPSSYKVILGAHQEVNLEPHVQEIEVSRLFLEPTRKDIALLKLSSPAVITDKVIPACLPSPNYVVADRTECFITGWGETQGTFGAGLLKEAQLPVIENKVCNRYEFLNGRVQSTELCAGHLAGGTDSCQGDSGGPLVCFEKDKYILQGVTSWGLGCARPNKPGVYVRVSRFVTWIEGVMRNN
Sequence of plasmin (P00747 97-580 limits assumed): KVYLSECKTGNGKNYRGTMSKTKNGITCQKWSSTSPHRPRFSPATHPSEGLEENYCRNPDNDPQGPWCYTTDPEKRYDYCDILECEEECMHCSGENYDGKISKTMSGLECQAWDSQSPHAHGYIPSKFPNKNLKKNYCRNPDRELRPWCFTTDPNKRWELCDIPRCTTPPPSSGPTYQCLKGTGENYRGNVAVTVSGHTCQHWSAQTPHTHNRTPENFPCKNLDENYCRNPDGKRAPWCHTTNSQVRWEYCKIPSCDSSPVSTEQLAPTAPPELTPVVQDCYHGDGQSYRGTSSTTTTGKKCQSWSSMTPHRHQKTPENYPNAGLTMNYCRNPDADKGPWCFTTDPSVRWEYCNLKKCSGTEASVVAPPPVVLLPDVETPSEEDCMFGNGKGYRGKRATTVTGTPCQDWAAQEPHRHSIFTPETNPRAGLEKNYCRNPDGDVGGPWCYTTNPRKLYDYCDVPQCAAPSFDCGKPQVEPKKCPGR

For the compound `N=C(N)N1CCCC(C[C@@H](C=O)NC(=O)CN2CCC[C@H](NS(=O)(=O)Cc3ccccc3)C2=O)C1` (single isomer, unassigned) [Isomer B], the IC50 (commonly the concentration that inhibits the measured activity by half) in data set [1] is above 25000 nM; in data set [6], 0.9 nM. In addition, the “prolongation of the APTT” value in data set [2] and in [3] (human plasma) was “prolonged the APTT in a dose dependent manner” in each case. Moreover, in data set [3] (citrated human plasma, control clotting time 29 seconds, mean of two independent determinations), the “concentration which caused a doubling of the control clotting time (APTT)” value amounted to 9.1 µM. Moreover, the “Incidence of Occlusion” value was 6/6 in data set [4] (0.3 mg/kg); 4/6 in data set [4] (1.0 mg/kg); 0/6 in data set [4] (3.0 mg/kg, p ≤ 0.05 from saline control by Fishers test). Moreover, in data set [4], the ED50 (as a rule, the midpoint of the dose-response relation) is 1.4 mg/kg. Also, the Ki (commonly a dissociation constant, usually derived from enzyme kinetics or from competition with a known ligand) in data set [5] worked out at 0.318 nM.
On to `N=C(N)c1ccc(CC(=O)C(=O)O)cc1` [APPA, 4-amidinophenylpyruvic acid], for which, in data set [7], the “selectivity of thrombin inhibition” value was “non-selective, inhibiting trypsin, plasmin and kallikrein”. The toxicity result in data set [8] was “low toxicity”. In data set [9], the pharmacokinetics result is “favourable pharmacokinetics”.
For the compound `CC1CNc2c(cccc2S(=O)(=O)N[C@@H](CCCNC(=N)N)C(=O)N2CC[C@@H](C)C[C@@H]2C(=O)O)C1` (stereo partly drawn) [Argatroban, 2R,4R-4-methyl-1-[N-2-(3-methyl-1,2,3,4-tetrahydro-8-quinolinesulfonyl)-L-argininal]-2-piperdinecarboxylic acid, reference compound], the ED50 in data set [4] (dose that prevents complete thrombotic occlusion in 50% of animals tested) amounted to 3.8 mg/kg.
With `CS(=O)(=O)O.CS(=O)(=O)O.N=C(N)Nc1ccc(C(=O)Oc2ccc3cc(C(=N)N)ccc3c2)cc1` [FUT 175, 6-amidino-2-naphthyl-4-guanidinobenzoate dimethanesulfonate], the “selectivity of thrombin inhibition” value in data set [7] is on record as “non-selective”.
